# Legend:
# [1] = test system: hippocampus of pilocarpine-treated rats; assay: Hippocampal histology two weeks after seizure induction (thionin cell loss score, Timm stain score); type: in vivo, Sprague Dawley rats; settings: dosage 5 μg
# Experimental: Two weeks after induction of seizure, animals were sacrificed and prepared for routine histology and Timm histochemistry. Following deep anesthesia with sodium pentobarbital (100 mg/kg), rats were perfused transcardially with 300 ml sodium sulfide medium (2.295 g Na2S, 2.975 g NaH2PO4/H2O in 500 ml H2O) followed by 300 ml 4% paraformaldehyd were postfixed in 4% paraformaldehyde for 24 h and then placed in a 30% sucrose solution until they sank to the bottom of the vial. Coronal sections through the entire extent of the hippocampus were cut at 40 μm on a freezing microtome and sections were stored in phosphate buffered saline. Every fourth section was stained for mossy fibers using Timm stain as follows. The sections were developed in the dark for 40-45 min in a solution of 50% Arabic gum (120 ml), 10 ml of citric acid (51 g/100 ml H2O), 10 ml sodium citrate (47 g/100 ml H2O), 3.47 g hydroquinone in 60ml, and 212.25 mg AgNO3. Following washing, the slides were dehydrated in alcohol, cleared in xylene, and mounted on slides with Permount (Fisher Scientific, Pittsburgh, Pa.). Timm staining was analyzed using a scoring system (0 to 5) for terminal sprouting in the CA3 and supragranular regions (Holmes G L, Gaiarsa J L, Chevassus-Au-Louis N, Ben-Ari Y. Consequences of neonatal seizures in the rat: morphological and behavioral effect. Ann. Neurol. 1998; 44: 845-857; Holmes G L, Sarkisian M, Ben-Ari Y, Chevassus-Au-Louis N. Mossy fiber sprouting following recurrent seizures during early development in rats. J. Comp. Neurol. 1999; 404: 537-553; each of which is incorporated herein by reference). […] Slides were analyzed for cell loss in the CA3, CA1 and hilar region using a semi-quantitative visual scoring system (0 to 5) (Mikati M A, Holmes G L, Chronopoulos A, et al. Phenobarbital modifies seizure-related brain injury in the developing brain. Ann. Neurol. 1994; 36: 425-433; incorporated herein by reference). Cell loss was assessed both ipsilateral and contralateral to the injection site. […]
# pilocarpine-treated rats = assay: Focal pilocarpine-induced seizures after intrahippocampal pretreatment, behavior scored 0-6; type: in vivo, Sprague Dawley rats
# Experimental: The method is similar to that described by Cavalheiro et al. (Cavalheiro E A, Czuzwar S J, Kleinrok S. Intracerebral cholinomimetics produce seizure-related brain damage in rats. Brit. J. Pharmacol. 1983; 79: 284P; incorporated herein by reference). Animals were anesthetized with pentobarbital (40 mg/kg) and an electrode-cannula guide (Plastic one, USA) was stereotactically implanted in the CA3 region of the dorsal hippocampus (lateral from midline 3.5 mm, posterior from bregma 3.8 mm, and 3.8 mm deep from skull; FIG. 35 in (Paxinos G, Watson C. The rat brain in stereotaxic coordinates, 4th edition. San Diego: Academic Press, 1998; incorporated herein by reference)). The electrode-cannula guide was fixed to skull using dental cement and skull screws. After surgery, a dummy cannula was placed into the guide cannula to prevent occlusion. One week later the rats received 30 μl of one anticonvulsant or control treatment (encapsulated or free) through the cannula using a microinfusion pump (Baxter, model AS40A) for 15 min at a rate of 0.12 ml/hr. Thirty minutes after completion of these treatments, 40 mM pilocarpine was infused for 50 min at a rate of 0.12 ml/hr. Subsequently, continuous EEGs were recorded from the electrode-cannulae, and the animals were videotaped for a minimum of two hours. […]
smiles,measurement,setting,value
"NCc1cc(=O)[nH]o1 [free muscimol, Muscimol]",Timm scores CA3 region,"[1]; n=4, mean ± SD",1.48 ± 0.63
same,Timm scores Supragranular,"[1]; n=4, mean ± SD",1.75 ± 0.28
same,Total cell loss,"[1]; n=4, thionin staining, mean ± SD",6.27 ± 0.57
same,"seizure activity as measured by behavior score, versus normal saline","pilocarpine-treated rats; 5 μg intrahippocampal prior to pilocarpine, 120 minute time course, n=4",reduces seizure activity
same,mortality,pilocarpine-treated rats; unencapsulated comparison groups to the 10 μg and 20 μg particle groups,high mortality

# From US20050202093A1, “Prolonged suppression of electrical activity in excitable tissues” (priority 2002, published 2005)
